Measured values from a compilation of properties of binary mixtures (doi:10.1007/s10973-016-5820-0).

Test: xn = mol fraction of the nth substance listed
Conditions: 100 kPa

Compound: O=C1CCCCC1 + CCCC[n+]1ccn(C)c1.F[B-](F)(F)F
- speed of sound (293.15 K, x2 = 0): 1431.2 m/s
- speed of sound (293.15 K, x2 = 0.0736): 1425.9 m/s
- speed of sound (293.15 K, x2 = 0.1128): 1424.7 m/s
- speed of sound (293.15 K, x2 = 0.1597): 1424.6 m/s
- speed of sound (293.15 K, x2 = 0.2933): 1431.3 m/s
- speed of sound (293.15 K, x2 = 0.3481): 1436.6 m/s
- speed of sound (293.15 K, x2 = 0.3956): 1442.2 m/s
- speed of sound (293.15 K, x2 = 0.4429): 1448.6 m/s
- speed of sound (293.15 K, x2 = 0.4937): 1456.5 m/s
- speed of sound (293.15 K, x2 = 0.5344): 1463.5 m/s
- speed of sound (293.15 K, x2 = 0.5938): 1474.6 m/s
- speed of sound (293.15 K, x2 = 0.6557): 1487.3 m/s
- speed of sound (293.15 K, x2 = 0.7028): 1497.8 m/s
- speed of sound (293.15 K, x2 = 0.7409): 1506.7 m/s
- speed of sound (293.15 K, x2 = 0.7973): 1520.6 m/s
- speed of sound (293.15 K, x2 = 0.8564): 1536.1 m/s
- speed of sound (293.15 K, x2 = 0.9047): 1549.6 m/s
- speed of sound (298.15 K, x2 = 0.0736): 1409.5 m/s
- speed of sound (298.15 K, x2 = 0.1128): 1408.5 m/s
- speed of sound (298.15 K, x2 = 0.2045): 1409.9 m/s
- speed of sound (298.15 K, x2 = 0.2459): 1412.1 m/s
- speed of sound (298.15 K, x2 = 0.3481): 1421.1 m/s
- speed of sound (298.15 K, x2 = 0.3956): 1426.9 m/s
- speed of sound (298.15 K, x2 = 0.4429): 1433.5 m/s
- speed of sound (298.15 K, x2 = 0.4937): 1441.6 m/s
- speed of sound (298.15 K, x2 = 0.5344): 1448.7 m/s
- speed of sound (298.15 K, x2 = 0.5938): 1460.1 m/s
- speed of sound (298.15 K, x2 = 0.6557): 1473.1 m/s
- speed of sound (298.15 K, x2 = 0.7028): 1483.8 m/s
- speed of sound (298.15 K, x2 = 0.7409): 1493 m/s
- speed of sound (298.15 K, x2 = 0.7973): 1507.2 m/s
- speed of sound (298.15 K, x2 = 0.8564): 1523 m/s
- speed of sound (298.15 K, x2 = 0.9047): 1536.7 m/s
- speed of sound (303.15 K, x2 = 0): 1395.1 m/s
- speed of sound (303.15 K, x2 = 0.0736): 1390.7 m/s
- speed of sound (303.15 K, x2 = 0.1597): 1390.2 m/s
- speed of sound (303.15 K, x2 = 0.2045): 1391.8 m/s
- speed of sound (303.15 K, x2 = 0.2459): 1394.2 m/s
- speed of sound (303.15 K, x2 = 0.3481): 1403.7 m/s
- speed of sound (303.15 K, x2 = 0.3956): 1409.8 m/s
- speed of sound (303.15 K, x2 = 0.4429): 1416.7 m/s
- speed of sound (303.15 K, x2 = 0.4937): 1425.2 m/s
- speed of sound (303.15 K, x2 = 0.5344): 1432.6 m/s
- speed of sound (303.15 K, x2 = 0.5938): 1444.5 m/s
- speed of sound (303.15 K, x2 = 0.7028): 1469.3 m/s
- speed of sound (303.15 K, x2 = 0.7973): 1493.7 m/s
- speed of sound (303.15 K, x2 = 0.8564): 1510.2 m/s
- speed of sound (303.15 K, x2 = 0.9047): 1524.4 m/s
- speed of sound (308.15 K, x2 = 0): 1375.1 m/s
- speed of sound (308.15 K, x2 = 0.1597): 1371.2 m/s
- speed of sound (308.15 K, x2 = 0.2045): 1373 m/s
- speed of sound (308.15 K, x2 = 0.2459): 1375.6 m/s
- speed of sound (308.15 K, x2 = 0.2933): 1379.7 m/s
- speed of sound (308.15 K, x2 = 0.3956): 1392 m/s
- speed of sound (308.15 K, x2 = 0.4429): 1399.3 m/s
- speed of sound (308.15 K, x2 = 0.4937): 1408.1 m/s
- speed of sound (308.15 K, x2 = 0.5344): 1415.8 m/s
- speed of sound (308.15 K, x2 = 0.5938): 1428.2 m/s
- speed of sound (308.15 K, x2 = 0.6557): 1442.4 m/s
- speed of sound (308.15 K, x2 = 0.7028): 1454 m/s
- speed of sound (308.15 K, x2 = 0.7973): 1479.5 m/s
- speed of sound (308.15 K, x2 = 0.8564): 1496.7 m/s

Compound: CCCC[n+]1ccn(C)c1.F[B-](F)(F)F + O=C1CCCCC1
- speed of sound (293.15 K, x1 = 1): 1578.1 m/s
- speed of sound (298.15 K, x1 = 1): 1565.5 m/s
- speed of sound (303.15 K, x1 = 1): 1554.1 m/s
- speed of sound (308.15 K, x1 = 1): 1542.3 m/s
